Measurements: patent US9364479B2, “Use of a receptor-type kinase modulator for treating polycystic kidney disease” (SYMPHONY EVOLUTION, INC., priority 2010, dated 2016)

Assays:
Testosterone (cytosolic) = target: T1, Testosterone (cytosolic) (Homo sapiens, UniProt P10275); assay: NovaScreen assay; format: binding; details: read-out: Inhibition, 10 μM XL-647
T1 construct: NovaScreen

EGFR [1] = target: T2, EGFR (Homo sapiens, UniProt P00533); assay: Luciferase-coupled chemiluminescence kinase assay; format: biochemical; details: ATP at Km
T2 construct: residues H672-A1210 of human EGFR, Proqinase; purchased Proqinase
Protocol: Dose-response experiments were done using 10 different inhibitor concentrations in 384-well microtiter plates. The ATP concentration used for each assay was equivalent to the Km for each kinase.
A Luciferase-coupled chemiluminescence assay was used to measure EGFR and KDR (VEGFR2) activity. Kinase activity was measured as the percentage of ATP consumed following the kinase reaction using luciferase-luciferin-coupled chemiluminescence. Reactions were conducted in 384-well white, medium-binding microtiter plates (Greiner). […] The reaction mixture was incubated at room temperature for 4 h. Following the kinase reaction, a 20 μL aliquot of Kinase Glo (Promega) was added and luminescence signal was measured using a Victor2 plate reader (Perkin-Elmer). Total ATP consumption was limited to 50%.

[2] = tested on: Adrenergic, Alpha 2, Non-selective; assay: NovaScreen assay; format: binding
KDR = KDR (Homo sapiens, UniProt P35968); assay: Mechanism of action study / Ki determination; format: biochemical; set-up: residues D807-V1356 of human KDR, Proqinase; purchased Proqinase
Protocol: (§1) Enzymatic activity was measured by standard methods after dilution of the enzyme-inhibitor complex.

[3] = tested on: subjects with advanced solid tumors; assay: Clinical Study XL-647-002 (Phase 1, daily dosing)
[4] = target: T3, Cholecystokinin, CCK1 (CCKA) (Homo sapiens, UniProt P32238); assay: NovaScreen assay; format: binding; details: read-out: Inhibition, 10 μM XL-647
T3 construct: NovaScreen

GABA-B = target: T4, GABA-B (Homo sapiens, UniProt Q9UBS5); assay: NovaScreen assay; format: binding; details: read-out: Inhibition, 10 μM XL-647
T4 construct: NovaScreen

[5] = tested on: BT474 human tumor xenograft; assay: BT474 xenograft, tumor growth; format: in vivo; details: Mus musculus
Protocol: (§2) The response of tumors to treatment was determined by comparing the mean tumor weight of the treatment group with the appropriate control group. Percentage inhibition of tumor growth was determined with the following formula: Percentage inhibition=100×[1−(Xf−Xo)/(Yf−Yo)], where Xf and Yf are the mean tumor weights of the treatment and control groups, respectively, on day f, and Xo and Yo are the mean tumor weights of treatment and control groups respectively, on day zero (staged tumor weights after grouping)

Endothelin, ET-A (Human) = target: T5, Endothelin, ET-A (Human) (Homo sapiens, UniProt P25101); assay: NovaScreen assay; format: binding; details: read-out: Inhibition, 10 μM XL-647
T5 construct: NovaScreen

[6] = tested on: H1975 human tumor xenograft; assay: H1975 xenograft, tumor growth; format: in vivo; details: Mus musculus, NCI-H1975; qd × 14
Protocol: (§3) Before treatment, H1975, A431, or MDA-MB-231 cells were harvested from exponentially growing cultures, detached by brief trypsinization, washed twice in cold HBSS, resuspended in ice-cold HBSS, and implanted either s.c. (H1975, 3×10^6 cells per mouse) or i.d. (A431, 1×10^6 cells per mouse) into the dorsal hind flank or s.c. into the mammary fat pad (MDA-MB-231, 1×10^6 cells per mouse). Palpable tumors were measured by caliper twice weekly until the mean tumor weight was in the range of ˜80 to 120 mg. Tumor weight was determined by measuring perpendicular diameters with a caliper and multiplying the measurements of diameters in two dimensions: tumor volume (mm^3)/2=length (mm)×width (mm^2)/2. […] The mean tumor weight of each animal in the respective control and treatment groups was determined twice weekly during the dosing periods. […]
as §2

Thromboxane A2 (Human) = target: T6, Thromboxane A2 (Human) (Homo sapiens, UniProt P21731); assay: NovaScreen assay; format: binding; details: read-out: Inhibition, 10 μM XL-647
T6 construct: NovaScreen

[7] = tested on: MDA-MB-231 human tumor xenograft; assay: MDA-MB-231 xenograft, tumor growth; format: in vivo; details: Mus musculus
Protocol: as §3, §2

EGFR [8] = target: T2, EGFR; assay: Mechanism of action study / Ki determination; format: biochemical
Protocol: as §1

Chain of KDR (P35968 807-1356): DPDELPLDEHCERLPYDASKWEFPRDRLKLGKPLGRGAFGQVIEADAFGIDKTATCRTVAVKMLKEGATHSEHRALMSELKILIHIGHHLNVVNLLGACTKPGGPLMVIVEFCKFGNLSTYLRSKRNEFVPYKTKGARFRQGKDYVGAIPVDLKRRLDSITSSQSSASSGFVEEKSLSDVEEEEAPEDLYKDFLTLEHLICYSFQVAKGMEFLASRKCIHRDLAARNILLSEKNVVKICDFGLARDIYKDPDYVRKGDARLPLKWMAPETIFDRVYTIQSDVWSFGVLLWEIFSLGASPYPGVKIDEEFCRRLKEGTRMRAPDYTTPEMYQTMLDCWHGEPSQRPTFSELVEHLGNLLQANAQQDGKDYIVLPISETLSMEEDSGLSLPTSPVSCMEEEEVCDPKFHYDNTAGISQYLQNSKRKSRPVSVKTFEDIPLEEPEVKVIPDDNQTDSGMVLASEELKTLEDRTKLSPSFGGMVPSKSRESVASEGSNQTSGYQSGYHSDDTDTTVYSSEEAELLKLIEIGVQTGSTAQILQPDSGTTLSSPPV
T2 sequence (P00533 672-1210): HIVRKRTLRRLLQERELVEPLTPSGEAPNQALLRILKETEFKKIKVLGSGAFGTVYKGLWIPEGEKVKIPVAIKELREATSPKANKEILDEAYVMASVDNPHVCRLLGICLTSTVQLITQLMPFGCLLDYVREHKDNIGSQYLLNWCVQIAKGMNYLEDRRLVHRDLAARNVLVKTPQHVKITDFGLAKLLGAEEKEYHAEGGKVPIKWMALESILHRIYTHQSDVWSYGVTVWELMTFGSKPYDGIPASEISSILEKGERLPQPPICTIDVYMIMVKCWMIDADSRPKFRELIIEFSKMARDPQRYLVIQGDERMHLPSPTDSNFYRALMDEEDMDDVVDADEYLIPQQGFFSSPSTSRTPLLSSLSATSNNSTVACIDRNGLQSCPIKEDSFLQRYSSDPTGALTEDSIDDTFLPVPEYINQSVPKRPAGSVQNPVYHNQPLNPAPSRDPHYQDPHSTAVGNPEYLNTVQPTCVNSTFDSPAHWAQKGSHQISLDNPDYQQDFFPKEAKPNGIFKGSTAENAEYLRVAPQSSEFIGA
T4 sequence (Q9UBS5 15-961 limits assumed): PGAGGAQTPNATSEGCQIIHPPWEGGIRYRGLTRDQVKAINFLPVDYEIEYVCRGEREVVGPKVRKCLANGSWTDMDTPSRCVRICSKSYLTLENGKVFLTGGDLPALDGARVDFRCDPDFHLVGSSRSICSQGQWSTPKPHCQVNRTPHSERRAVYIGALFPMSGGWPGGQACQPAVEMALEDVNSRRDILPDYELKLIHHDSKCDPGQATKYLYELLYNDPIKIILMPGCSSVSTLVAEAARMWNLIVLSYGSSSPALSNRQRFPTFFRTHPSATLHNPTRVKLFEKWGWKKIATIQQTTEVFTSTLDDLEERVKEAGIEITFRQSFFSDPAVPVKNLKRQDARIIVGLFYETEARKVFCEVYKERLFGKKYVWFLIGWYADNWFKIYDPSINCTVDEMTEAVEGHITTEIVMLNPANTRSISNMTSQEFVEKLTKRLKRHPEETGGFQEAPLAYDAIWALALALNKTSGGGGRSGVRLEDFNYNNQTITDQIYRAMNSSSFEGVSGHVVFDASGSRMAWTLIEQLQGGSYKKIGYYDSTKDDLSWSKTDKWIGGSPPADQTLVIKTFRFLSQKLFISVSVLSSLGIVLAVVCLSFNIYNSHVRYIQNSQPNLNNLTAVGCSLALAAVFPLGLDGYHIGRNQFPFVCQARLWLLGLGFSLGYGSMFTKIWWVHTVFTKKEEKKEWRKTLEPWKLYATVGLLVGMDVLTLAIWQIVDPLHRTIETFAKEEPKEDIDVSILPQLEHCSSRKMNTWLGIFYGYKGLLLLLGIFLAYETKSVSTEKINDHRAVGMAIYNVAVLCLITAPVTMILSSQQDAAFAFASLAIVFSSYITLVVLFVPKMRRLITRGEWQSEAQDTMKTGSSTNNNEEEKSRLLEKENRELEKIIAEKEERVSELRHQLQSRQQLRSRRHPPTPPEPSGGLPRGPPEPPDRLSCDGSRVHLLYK
T4 sequence (O75899 42-941 partner): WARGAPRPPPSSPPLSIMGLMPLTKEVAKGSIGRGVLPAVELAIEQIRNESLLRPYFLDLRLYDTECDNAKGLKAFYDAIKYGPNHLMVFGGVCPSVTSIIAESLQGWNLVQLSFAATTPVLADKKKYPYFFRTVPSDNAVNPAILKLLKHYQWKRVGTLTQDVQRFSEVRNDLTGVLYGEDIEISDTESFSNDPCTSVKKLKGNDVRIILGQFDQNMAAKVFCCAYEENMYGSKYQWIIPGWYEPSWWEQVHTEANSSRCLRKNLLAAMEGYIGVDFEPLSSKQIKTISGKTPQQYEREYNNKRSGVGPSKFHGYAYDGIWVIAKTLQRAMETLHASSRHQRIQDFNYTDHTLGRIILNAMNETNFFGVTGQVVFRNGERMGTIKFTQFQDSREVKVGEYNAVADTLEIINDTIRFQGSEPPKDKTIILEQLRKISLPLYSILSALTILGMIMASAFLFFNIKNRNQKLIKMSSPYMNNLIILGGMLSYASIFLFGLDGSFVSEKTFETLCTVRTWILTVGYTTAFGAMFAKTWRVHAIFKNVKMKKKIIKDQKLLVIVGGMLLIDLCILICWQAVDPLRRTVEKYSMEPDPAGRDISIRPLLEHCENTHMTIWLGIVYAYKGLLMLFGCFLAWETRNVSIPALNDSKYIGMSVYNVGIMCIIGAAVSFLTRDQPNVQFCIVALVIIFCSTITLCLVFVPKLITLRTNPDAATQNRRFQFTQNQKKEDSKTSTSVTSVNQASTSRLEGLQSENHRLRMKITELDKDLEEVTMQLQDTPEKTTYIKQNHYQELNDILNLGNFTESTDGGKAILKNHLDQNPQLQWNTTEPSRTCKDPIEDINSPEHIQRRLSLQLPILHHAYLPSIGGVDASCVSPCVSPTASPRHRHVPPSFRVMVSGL
T6 sequence (P21731 whole entry): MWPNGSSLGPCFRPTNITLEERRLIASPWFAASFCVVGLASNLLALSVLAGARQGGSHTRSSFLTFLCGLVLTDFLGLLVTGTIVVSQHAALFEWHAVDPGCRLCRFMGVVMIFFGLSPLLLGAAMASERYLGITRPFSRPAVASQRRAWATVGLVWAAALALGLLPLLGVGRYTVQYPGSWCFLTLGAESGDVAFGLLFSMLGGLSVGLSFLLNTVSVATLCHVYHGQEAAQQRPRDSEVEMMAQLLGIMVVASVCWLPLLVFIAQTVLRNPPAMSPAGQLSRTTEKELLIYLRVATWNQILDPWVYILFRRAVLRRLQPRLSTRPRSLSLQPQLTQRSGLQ
T1 sequence (P10275 whole entry): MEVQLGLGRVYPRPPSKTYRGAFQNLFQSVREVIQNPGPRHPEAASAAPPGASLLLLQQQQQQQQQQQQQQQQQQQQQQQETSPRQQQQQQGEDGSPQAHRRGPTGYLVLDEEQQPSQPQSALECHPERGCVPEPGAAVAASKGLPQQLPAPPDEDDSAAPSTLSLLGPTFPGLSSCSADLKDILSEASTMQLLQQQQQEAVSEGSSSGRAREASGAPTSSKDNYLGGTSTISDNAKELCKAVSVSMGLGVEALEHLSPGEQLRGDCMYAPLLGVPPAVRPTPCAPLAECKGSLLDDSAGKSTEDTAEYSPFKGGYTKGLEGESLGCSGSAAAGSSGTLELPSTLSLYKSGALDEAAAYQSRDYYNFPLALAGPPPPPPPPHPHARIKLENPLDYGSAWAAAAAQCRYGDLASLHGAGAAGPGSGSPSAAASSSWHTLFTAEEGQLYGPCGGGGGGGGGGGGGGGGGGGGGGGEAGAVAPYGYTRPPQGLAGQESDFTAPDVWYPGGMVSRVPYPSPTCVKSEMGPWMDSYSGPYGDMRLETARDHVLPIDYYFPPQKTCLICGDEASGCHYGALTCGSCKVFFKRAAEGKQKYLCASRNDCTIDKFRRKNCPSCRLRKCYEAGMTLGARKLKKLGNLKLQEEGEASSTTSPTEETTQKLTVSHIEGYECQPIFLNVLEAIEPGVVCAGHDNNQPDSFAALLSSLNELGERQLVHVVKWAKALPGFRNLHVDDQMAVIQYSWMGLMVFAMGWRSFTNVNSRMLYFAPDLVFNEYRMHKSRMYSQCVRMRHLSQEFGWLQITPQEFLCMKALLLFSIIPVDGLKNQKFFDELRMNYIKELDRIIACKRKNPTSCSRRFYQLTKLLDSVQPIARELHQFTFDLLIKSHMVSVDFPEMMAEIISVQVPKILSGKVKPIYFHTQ
T5 sequence (P25101 21-427): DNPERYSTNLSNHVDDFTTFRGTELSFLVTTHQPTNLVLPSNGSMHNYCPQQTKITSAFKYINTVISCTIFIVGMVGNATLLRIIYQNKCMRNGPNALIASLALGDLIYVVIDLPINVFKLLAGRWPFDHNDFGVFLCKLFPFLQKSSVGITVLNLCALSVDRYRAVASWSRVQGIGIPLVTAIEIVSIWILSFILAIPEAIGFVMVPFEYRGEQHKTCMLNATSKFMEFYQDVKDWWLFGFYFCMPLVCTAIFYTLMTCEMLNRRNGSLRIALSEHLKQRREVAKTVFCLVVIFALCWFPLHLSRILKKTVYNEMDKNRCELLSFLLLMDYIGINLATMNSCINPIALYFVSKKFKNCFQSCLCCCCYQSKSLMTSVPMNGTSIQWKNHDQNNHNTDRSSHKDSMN
T3 sequence (P32238 whole entry): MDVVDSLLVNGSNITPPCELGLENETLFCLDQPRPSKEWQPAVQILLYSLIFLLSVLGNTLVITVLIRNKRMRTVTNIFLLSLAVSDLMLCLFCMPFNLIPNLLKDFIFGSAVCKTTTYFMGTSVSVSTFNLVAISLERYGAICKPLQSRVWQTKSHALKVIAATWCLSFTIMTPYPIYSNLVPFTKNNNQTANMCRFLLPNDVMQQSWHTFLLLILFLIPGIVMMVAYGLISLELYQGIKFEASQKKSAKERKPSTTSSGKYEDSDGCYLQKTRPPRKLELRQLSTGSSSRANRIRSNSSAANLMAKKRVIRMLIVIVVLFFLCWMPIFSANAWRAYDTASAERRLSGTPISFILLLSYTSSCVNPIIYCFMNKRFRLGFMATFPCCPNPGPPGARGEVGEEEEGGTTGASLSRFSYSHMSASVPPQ

## COc1cc2c(Nc3ccc(Cl)c(Cl)c3F)ncnc2cc1OC[C@@H]1C[C@@H]2CN(C)C[C@@H]2C1 [XL-647, N-(3,4-dichloro-2-fluorophenyl)-7-({[(3aR,5r,6aS)-2-methyloctahydrocyclopenta[c]pyrrol-5-yl]methyl}oxy)-6-(methyloxy)quinazolin-4-amine]
Testosterone (cytosolic)
  inhibition at 10 µM: 18.1%
EGFR [1]
  IC50: 0.3 ± 0.1 nM
[2]
  IC50: 1800 nM
[2]; 10 μM
  Inhibition, 10 μM XL-647: 84.56%
KDR
  ATP-Competitive: Yes
  Ki: 0.6 nM
  Reversible: Yes
[3]; human, in vivo
  subjects with SD lasting greater than 3 months: 16 subjects
[3]; single oral dose daily
  MTD: 300 mg
[4]
  inhibition at 10 µM: 47.5%
GABA-B
  inhibition at 10 µM: -1.19%
[5]; BT-474, qd × 14
  ED50: 9.8 mg/kg
[5]; BT-474, qd × 28
  ED50: 21.9 mg/kg
Endothelin, ET-A (Human)
  inhibition at 10 µM: -11.1%
[6]
  ED50: 17 mg/kg
Thromboxane A2 (Human)
  inhibition at 10 µM: 1.51%
[7]; MDA-MB-231, qd × 14
  ED50: 21.9 mg/kg
[7]; MDA-MB-231, qd × 28
  ED50: 22.9 mg/kg
EGFR [8]
  ATP-Competitive: Yes
  Ki: 0.05 nM
  Reversible: Yes
